The supplement of paper PMC10307832

Experiments:
Test in all cases: relative viability (nuclei count vs DMSO), 5 days (fraction); higher = more cells survive
[1] = compound: CC1CC(=O)N(C2=CN=C(N=C2N1C3CCCC3)NC4=C(C=C(C=C4)C(=O)NC5CCN(CC5)C)OC)C [NPK76-II-72-1] + COc1cc2c(Oc3ccc(NC(=O)C4(C(=O)Nc5ccc(F)cc5)CC4)cc3F)ccnc2cc1OCCCN1CCOCC1 [Foretinib] (partner 0.25 µM)
How it was run: (§1)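 Values are medians from duplicate plates. Each reflects relative viability, defined as the nuclei count of treated wells over that of vehicle wells. Lung cancer cell lines in 1536-well plates were pin-tool dosed one day after seeding with one drug alone or with a fixed anchor-drug dose plus five library-drug doses (not always all listed) in √10 steps, then fixed, stained and imaged at 4× after 5 days.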

[2] = compound: CC1CC(=O)N(C2=CN=C(N=C2N1C3CCCC3)NC4=C(C=C(C=C4)C(=O)NC5CCN(CC5)C)OC)C [NPK76-II-72-1] + C[C@@H](Oc1cc(-c2cnn(C3CCNCC3)c2)cnc1N)c1c(Cl)ccc(F)c1Cl [Crizotinib] (partner 1 µM)
How it was run: as §1

[3] = compound: CC1CC(=O)N(C2=CN=C(N=C2N1C3CCCC3)NC4=C(C=C(C=C4)C(=O)NC5CCN(CC5)C)OC)C [NPK76-II-72-1] + C[C@]1(O)C[C@@H](c2nc(-c3ccc4ccc(-c5ccccc5)nc4c3)c3c(N)nccn32)C1 [Linsitinib] (partner 1 µM)
How it was run: as §1

BI-2536 + Pictilisib = compound: CC[C@@H]1C(=O)N(C)c2cnc(Nc3ccc(C(=O)NC4CCN(C)CC4)cc3OC)nc2N1C1CCCC1 [BI-2536] + CS(=O)(=O)N1CCN(Cc2cc3nc(-c4cccc5[nH]ncc45)nc(N4CCOCC4)c3s2)CC1 [Pictilisib] (partner 1 µM)
How it was run: as §1

Row | Cell Line | relative viability ([1]; first compound 0.01 µM) | relative viability ([1]; first compound 0.03162 µM) | relative viability ([1]; first compound 0.1 µM) | relative viability ([1]; first compound 0.3162 µM) | relative viability ([1]; first compound 1 µM) | relative viability ([2]; first compound 0.01 µM) | relative viability ([2]; first compound 0.03162 µM) | relative viability ([2]; first compound 0.1 µM) | relative viability ([2]; first compound 1 µM) | relative viability ([3]; first compound 0.01 µM) | relative viability ([3]; first compound 0.03162 µM) | relative viability ([3]; first compound 0.1 µM) | relative viability ([3]; first compound 0.3162 µM) | relative viability ([3]; first compound 1 µM) | relative viability (BI-2536 + Pictilisib; first compound 0.01 µM) | relative viability (BI-2536 + Pictilisib; first compound 0.03162 µM) | relative viability (BI-2536 + Pictilisib; first compound 0.1 µM) | relative viability (BI-2536 + Pictilisib; first compound 0.3162 µM) | relative viability (BI-2536 + Pictilisib; first compound 1 µM) | relative viability ([2]; first compound 0.3162 µM)
1 | H3255 | 0.838 | 0.797 | 0.854 | 0.633 | 0.867 | 0.855 | 0.887 | 0.819 | 1.16 | 0.973 | 0.994 | 0.915 | 0.677 | 1.14 | 0.503 | 0.503 | 0.305 | 0.176 | 0.182 | –
2 | NCI-H647 | 1.12 | 1.19 | 1.35 | 1.04 | 1.19 | 1.06 | 1.15 | – | 1.06 | 1.2 | 1.28 | – | 1.07 | 1.14 | 0.396 | 0.376 | 0.129 | 0.0762 | 0.0954 | 0.966
3 | NCI-H2023 | 0.659 | 0.797 | – | 0.624 | 1.07 | 0.655 | 0.571 | 0.648 | 0.733 | 0.488 | 0.713 | 0.716 | 0.56 | 0.655 | 0.218 | 0.211 | 0.091 | 0.0927 | 0.094 | 0.508
4 | NCI-H23 | 0.955 | 0.88 | 0.954 | 0.99 | 0.973 | 0.544 | 0.563 | – | 0.528 | 0.546 | 0.701 | – | 0.592 | 0.552 | 0.424 | 0.272 | 0.169 | 0.139 | 0.14 | 0.556
5 | NCI-H1944 | 0.9 | 0.936 | 0.899 | 0.808 | 0.992 | 0.985 | 1.12 | 1.1 | 1.22 | 1.16 | 1.09 | 1.21 | 1.06 | 1.28 | 0.339 | 0.336 | 0.295 | 0.157 | 0.17 | 1.01
6 | NCI-H520 | 0.648 | 0.854 | 0.674 | 0.867 | 0.794 | 0.713 | 0.914 | 0.716 | 0.751 | 0.753 | 0.83 | 0.804 | 0.922 | 1.07 | 0.287 | 0.232 | 0.268 | 0.172 | 0.162 | 0.75
7 | A549 | 0.937 | 0.979 | 0.93 | 0.856 | 1.05 | 0.704 | 0.798 | 0.775 | 0.8 | 0.516 | 0.651 | 0.538 | 0.417 | 0.54 | 0.46 | 0.461 | 0.0515 | 0.0559 | 0.0422 | 0.803
8 | NCI-H460 | 0.931 | 1.02 | 0.996 | 1.01 | 1.02 | 0.945 | 1.03 | 1.06 | 0.898 | 0.721 | 0.787 | 0.842 | 0.762 | 0.895 | 0.276 | 0.375 | 0.33 | 0.0337 | 0.0494 | 0.876
9 | EKVX | 0.428 | 0.878 | 0.773 | 0.3 | 1.15 | 0.787 | 1.16 | 0.936 | 0.922 | 0.935 | 1.07 | 0.985 | 0.764 | 1.18 | 0.47 | 0.483 | 0.444 | 0.14 | 0.123 | 0.832
10 | NCI-H358 | 0.575 | 0.695 | 0.915 | – | 0.769 | 0.606 | 0.604 | 0.604 | 0.651 | 0.742 | 0.773 | 0.854 | 0.412 | 0.784 | 0.338 | 0.235 | 0.18 | 0.14 | 0.15 | 0.437
11 | EPLC-272H | 0.552 | – | 0.69 | 0.852 | 0.729 | 0.865 | 0.865 | 1.02 | 0.91 | 0.973 | 1.15 | 1.28 | 1.05 | 1.18 | 0.343 | 0.256 | – | 0.233 | 0.151 | 0.892
12 | NCI-H1563 | 0.84 | 0.875 | 0.933 | 0.923 | 0.845 | 0.875 | 0.905 | 0.84 | 0.932 | 1.07 | 1.29 | 1.11 | 1.16 | 1.2 | 0.699 | 0.61 | 0.558 | 0.578 | 0.511 | 0.825
13 | NCI-H2126 | 1.47 | 1.23 | 0.916 | 1.14 | 1.17 | 1.02 | 1.07 | 0.965 | 1.06 | 0.756 | 0.777 | 0.701 | 0.671 | 0.752 | 0.509 | 0.48 | 0.27 | 0.247 | 0.253 | 1.01
14 | LXF-289 | 0.945 | 1.03 | 0.896 | 0.948 | 0.961 | 0.829 | 0.84 | 0.823 | 0.828 | 0.931 | 0.977 | 0.921 | 0.925 | 1 | 0.839 | 0.759 | 0.126 | 0.0466 | 0.0562 | 0.801
